The IC50 is the concentration that inhibits the measured activity by half. Read a low IC50 as inhibition by little substance.

Counter-ions that a name gives are not always drawn.

The assay deals with T1, proton pump (H+/K+-ATPase) (Sus scrofa, UniProt P19156).
T1 construct: Gastric vesicles were prepared from hog stomach via centrifugal separation; from tissue; host or cells: hog stomach (gastric vesicles, method of Rabon et al. 1988)
T1 sequence (P19156 whole entry): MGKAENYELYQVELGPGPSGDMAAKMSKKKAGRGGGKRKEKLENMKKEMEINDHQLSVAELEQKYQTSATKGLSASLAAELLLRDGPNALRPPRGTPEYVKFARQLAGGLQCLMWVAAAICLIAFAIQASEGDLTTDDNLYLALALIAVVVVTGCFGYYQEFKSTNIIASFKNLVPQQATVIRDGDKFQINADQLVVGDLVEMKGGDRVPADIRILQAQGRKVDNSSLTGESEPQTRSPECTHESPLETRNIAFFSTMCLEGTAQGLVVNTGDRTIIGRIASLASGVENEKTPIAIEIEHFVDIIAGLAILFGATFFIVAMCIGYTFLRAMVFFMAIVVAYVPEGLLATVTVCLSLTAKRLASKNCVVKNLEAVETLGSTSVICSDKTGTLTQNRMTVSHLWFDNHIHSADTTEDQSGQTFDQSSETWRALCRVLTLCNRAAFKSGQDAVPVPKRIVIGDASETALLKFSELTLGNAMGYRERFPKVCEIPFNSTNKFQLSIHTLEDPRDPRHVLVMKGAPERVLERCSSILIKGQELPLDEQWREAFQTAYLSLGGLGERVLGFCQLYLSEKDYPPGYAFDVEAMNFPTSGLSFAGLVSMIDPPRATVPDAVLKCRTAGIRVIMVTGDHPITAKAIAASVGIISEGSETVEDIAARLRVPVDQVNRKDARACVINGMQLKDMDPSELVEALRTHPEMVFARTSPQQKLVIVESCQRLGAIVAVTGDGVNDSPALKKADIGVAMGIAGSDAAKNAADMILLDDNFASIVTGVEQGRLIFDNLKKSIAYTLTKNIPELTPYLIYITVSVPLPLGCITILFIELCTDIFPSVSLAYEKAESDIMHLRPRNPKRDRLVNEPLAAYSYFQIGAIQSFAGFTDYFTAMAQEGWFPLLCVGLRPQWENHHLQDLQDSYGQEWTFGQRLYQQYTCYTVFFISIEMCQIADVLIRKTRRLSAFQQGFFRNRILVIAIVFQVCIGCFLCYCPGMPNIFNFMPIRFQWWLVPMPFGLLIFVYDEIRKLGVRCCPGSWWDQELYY
T1 sequence (P18434 whole entry partner): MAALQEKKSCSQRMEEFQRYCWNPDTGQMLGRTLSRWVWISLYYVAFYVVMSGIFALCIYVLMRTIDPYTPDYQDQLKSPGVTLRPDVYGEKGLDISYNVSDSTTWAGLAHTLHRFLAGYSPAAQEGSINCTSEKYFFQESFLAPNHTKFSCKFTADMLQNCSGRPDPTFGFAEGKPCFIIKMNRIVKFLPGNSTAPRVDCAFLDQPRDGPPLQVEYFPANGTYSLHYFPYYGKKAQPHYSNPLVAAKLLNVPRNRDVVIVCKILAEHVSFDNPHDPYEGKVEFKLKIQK
Kind of assay: Measurement of inhibitory effects on proton pump (H+/K+-ATPase) activities. Type of assay: biochemical. The settings on record: hog gastric vesicles, K+-specific H+/K+-ATPase activity, Tris-HCl buffer pH 7.4, 37° C. for 40 minutes, malachite green Pi readout. Put shortly:
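Hog gastric vesicles in 60 mmol/l Tris-HCl pH 7.4 with 0.5% DMSO were treated with compounds at room temperature; reaction was started with 10 μl of 10 mmol/l ATP stock. Released Pi was read at 570 nm, K+-specific activity taken as the ±K+ difference. IC50 from 4-parameter logistic fit.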
In turn, `CNCc1cn(S(=O)(=O)c2cccnc2)c2cc(Nc3ccc(F)cc3C)cnc12` [Example 346, N-(4-fluoro-2-methylphenyl)-3-((methylamino)methyl)-1-(pyridin-3-ylsulfonyl)-1H-pyrrolo[3,2-b]pyridin-6-amine hydrochloride] had an IC50 of 230 nM.

For `CNCc1cn(S(=O)(=O)c2cccnc2)c2cc(-c3cnc(OC)nc3)ccc12` [Example 259, 1-(6-(2-methoxypyrimidin-5-yl)-1-(pyridin-3-ylsulfonyl)-1H-indol-3-yl)-N-methylmethanamine hydrochloride], half-maximal inhibition (IC50) required 40000 nM.

In the case of `CN(C)C(=O)c1cn(S(=O)(=O)c2cccnc2)c2cc(Nc3ccc(Cl)nc3Cl)ccc12` [Example 331, 6-((2,6-dichloropyridin-3-yl)amino)-N,N-dimethyl-1-(pyridin-3-ylsulfonyl)-1H-indol-3-carboxamide], the IC50 is 70000 nM.

For `CNCc1cn(S(=O)(=O)c2ccccc2)c2cc(Nc3ccc(C)cc3F)ccc12` [Example 222, N-(2-fluoro-4-methylphenyl)-3-((methylamino)methyl)-1-(phenylsulfonyl)-1H-indol-6-amine hydrochloride], the midpoint of inhibition, the IC50, lay at 1840 nM.

Take `CNCc1cn(S(=O)(=O)c2cccnc2)c2cc(Nc3c(F)cccc3F)ccc12` [Example 60, N-(2,6-difluorophenyl)-3-((methylamino)methyl)-1-(pyridin-3-ylsulfonyl)-1H-indol-6-amine hydrochloride]: it took 2460 nM to reach half-maximal inhibition (IC50).

Molecule `CNCc1cn(S(=O)(=O)c2cccnc2)c2cc(Nc3ccc(C(F)(F)F)cc3F)ccc12` [Example 33, N-(2-fluoro-4-(trifluoromethyl)phenyl)-3-((methylamino)methyl)-1-(pyridin-3-ylsulfonyl)-1H-indol-6-amine hydrochloride] gave an IC50 of 1360 nM.

For `CNCc1cn(S(=O)(=O)c2cccnc2)c2cc(Nc3ccc(OC(F)(F)F)cc3F)ccc12` [Example 54, N-(2-fluoro-4-(trifluoromethoxy)phenyl)-3-((methylamino)methyl)-1-(pyridin-3-ylsulfonyl)-1H-indol-6-amine hydrochloride], the IC50 is 1050 nM.

Molecule `CNCc1cn(S(=O)(=O)c2cccnc2)c2cc(Cc3ccc(C)nc3Cl)ccc12` [Example 284, 1-(6-((2-chloro-6-methylpyridin-3-yl)methyl)-1-(pyridin-3-ylsulfonyl)-1H-indol-3-yl)-N-methylmethanamine hydrochloride] had a concentration for half-maximal inhibition (IC50) of 1010 nM.

The molecule `CNCc1cn(S(=O)(=O)c2cccc(OC)c2)c2cc(Nc3ccc(Cl)cc3C(F)(F)F)ccc12` [Example 165, N-(4-chloro-2-(trifluoromethyl)phenyl)-1-((3-methoxyphenyl)sulfonyl)-3-((methylamino)methyl)-1H-indol-6-amine hydrochloride] showed an IC50 of 80 nM.

Consider `CNCc1cn(S(=O)(=O)c2cccnc2)c2cc(-c3cccc(Cl)c3)ccc12` [Example 244, 1-(6-(3-chlorophenyl)-1-(pyridin-3-ylsulfonyl)-1H-indol-3-yl)-N-methylmethanamine], for which the IC50 is 2440 nM.

`CNCc1cn(S(=O)(=O)c2cccc(OC)c2)c2cc(Cc3ccc(OC)nc3Cl)ccc12` [Example 295, 1-(6-((2-chloro-6-methoxypyridin-3-yl)methyl)-1-((3-methoxyphenyl)sulfonyl)-1H-indol-3-yl)-N-methylmethanamine] came in with an IC50 of 920 nM.

On to `CNCc1cn(S(=O)(=O)c2ccc(Cl)c(Cl)c2)c2cc(Nc3ccc(C)cc3F)ccc12` [Example 238, 1-((3,4-dichlorophenyl)sulfonyl)-N-(2-fluoro-4-methylphenyl)-3-((methylamino)methyl)-1H-indol-6-amine hydrochloride], for which the 50% inhibitory concentration (IC50) turned out to be 2560 nM.

Take `CNCc1cn(S(=O)(=O)c2cccnc2)c2cc(Cc3ccc(C)nc3F)ccc12` [Example 283, 1-(6-((2-fluoro-6-methylpyridin-3-yl)methyl)-1-(pyridin-3-ylsulfonyl)-1H-indol-3-yl)-N-methylmethanamine hydrochloride]: the IC50 is 2630 nM.

Regarding `CNCc1cn(S(=O)(=O)c2cccc(OC(F)(F)F)c2)c2cc(Nc3ccc(C)cc3Cl)ccc12` [Example 196, N-(2-chloro-4-methylphenyl)-3-((methylamino)methyl)-1-((3-(trifluoromethoxy)phenyl)sulfonyl)-1H-indol-6-amine hydrochloride], the IC50 came to 390 nM.

Molecule `CNCc1cn(S(=O)(=O)c2cccnc2)c2cc(Nc3c(F)cc(OC)cc3F)ccc12` [Example 88, N-(2,6-difluoro-4-methoxyphenyl)-3-((methylamino)methyl)-1-(pyridin-3-ylsulfonyl)-1H-indol-6-amine hydrochloride] showed an IC50 of 430 nM.

For the molecule `CNCc1cn(S(=O)(=O)c2cccc(F)c2)c2cc(Nc3ccc(F)cc3C)ncc12` [Example 354, N-(4-fluoro-2-methylphenyl)-1-((3-fluorophenyl)sulfonyl)-3-((methylamino)methyl)-1H-pyrrolo[3,2-c]pyridin-6-amine hydrochloride], the IC50 came to 800 nM.

`CNCc1cn(S(=O)(=O)c2cccc(OC(F)F)c2)c2cc(Nc3ccc(C)cc3F)ccc12` [Example 174, 1-((3-(difluoromethoxy)phenyl)sulfonyl)-N-(2-fluoro-4-methylphenyl)-3-((methylamino)methyl)-1H-indol-6-amine hydrochloride] gave an IC50 of 20 nM.

The molecule `CNCc1cn(S(=O)(=O)c2ccccc2F)c2cc(Cc3ccc(C)cc3Cl)ccc12` [Example 300, 1-(6-(2-chloro-4-methylbenzyl)-1-((2-fluorophenyl)sulfonyl)-1H-indol-3-yl)-N-methylmethanamine] yielded an IC50 of 1530 nM.

With `CNCc1cn(S(=O)(=O)c2cccnc2)c2cc(Nc3cc(OC)c(Cl)cc3Cl)ccc12` [Example 77, N-(2,4-dichloro-5-methoxyphenyl)-3-((methylamino)methyl)-1-(pyridin-3-ylsulfonyl)-1H-indol-6-amine hydrochloride], inhibition was half-maximal at 350 nM (IC50).

For `CCOc1cc(F)c(Nc2ccc3c(CNC)cn(S(=O)(=O)c4cccnc4)c3c2)c(F)c1` [Example 89, N-(4-ethoxy-2,6-difluorophenyl)-3-((methylamino)methyl)-1-(pyridin-3-ylsulfonyl)-1H-indol-6-amine hydrochloride], half-maximal inhibition (IC50) required 870 nM.

`CNCc1cn(S(=O)(=O)c2cccnc2)c2cc(Nc3ccc(Cl)cc3C)cnc12` [Example 348, N-(4-chloro-2-methylphenyl)-3-((methylamino)methyl)-1-(pyridin-3-ylsulfonyl)-1H-pyrrolo[3,2-b]pyridin-6-amine hydrochloride]: inhibition was half-maximal at 200 nM (IC50).

For `CNCc1cn(S(=O)(=O)c2cccnc2)c2cc(-c3ccc(C)cc3F)ccc12` [Example 252, 1-(6-(2-fluoro-4-methylphenyl)-1-(pyridin-3-ylsulfonyl)-1H-indol-3-yl)-N-methylmethanamine hydrochloride], it took 1000 nM to reach half-maximal inhibition (IC50).

Molecule `COc1ccc(Nc2ccc3c(C(=O)N(C)C)cn(S(=O)(=O)c4cccnc4)c3c2)c(Cl)n1` [Example 332, 6-((2-chloro-6-methoxypyridin-3-yl)amino)-N,N-dimethyl-1-(pyridin-3-ylsulfonyl)-1H-indol-3-carboxamide] registered a 50% inhibitory concentration (IC50) of 60000 nM.

For the origin of these results see patent US9676714B2, “Sulfonylindole derivatives and method for preparing the same” (Daewoong Pharmaceutical Co., Ltd., priority 2013, dated 2017).
